Laboratory results: US20110177156A1, “Sterol-Modified Amphiphilic Lipids” (priority 2007, published 2011)
Where two headings read alike, the source gives them in different places.

Legend:
[1] = Cholesterol exchange from donor liposomes to POPC acceptor liposomes at 37° C.; type: physicochemical; conditions: for exchange of cholesterol out of donor liposomes: PChcPC/DPPC/DPPG (50/40/10), DChcPC/DPPC/DPPG (25/65/10), POPC acceptor
Description: Unilamellar liposomes were prepared by extrusion method. […] Specifically, the three donor liposomes were formulated at the following molar ratios: 1) […] (50/40/10), 2) […] (25/65/10), 3) Chol/DPPC/DPPG (40/50/10). Neutral 1-palmitoyl-2-oleoyl-sn-glycero-3-phosphocholine (POPC) liposome was used as the acceptor. After extrusion, the diameter of the donor liposomes was around 100 nm, and 140 nm for the acceptor liposome. For the exchange experiments, 1 mL donor liposomes (10 mM) and 1 mL acceptor liposomes (100 mM, 10 fold) were warmed at 37° C. first, then mixed and incubated at 37° C. An aliquot (250 μL) of mixture was sampled at given time point and applied to a small (ca. 1 cm in length) anion exchange column (Q-Sepharose XL). The column was pretreated with 0.1 mL 10 mM POPC before the loading of the exchange sample to reduce the nonspecific binding of the neutral liposome. The column was eluted with 1 mL 10 mM NaCl, 10 mM HEPES pH 7.4 buffer. The eluate was lyophilized and analyzed by the cholesterol assay to quantify the amount of cholesterol exchanged.

[2] = Differential scanning calorimetry of SMLs and SML/diacyl lipid mixtures; type: physicochemical
Text: Specific SMLs were used as the model compounds to study the properties of the SML compounds. Phase behavior is one of the most important properties of lipid bilayers and is associated with various biological functions of cell membranes. Addition of free cholesterol to the phospholipid bilayer will change the phase behavior of the bilayer due to the mixing of free cholesterol with the glycerolipids and sphingolipids as well as the effect the isoprenol tail of free cholesterol exerts on the acyl chain packing in the bilayer. Using differential scanning calorimetry it was shown that the SMLs exert a similar effect as free cholesterol on acyl chain packing in bilayers composed of synthetic lipids. […] The equivalent sterol molar percentage in the mixture of m-SML and diacyl lipid is calculated according to the method of conventional lipid mixture with the following formula: Sterol %=[…])×100, wherein: For example, a pure m-SML has one sterol and one acyl chain, thus the equivalent free sterol percentage is 1/1.5×100=67. […]

[3] = system: C26 colon carcinoma cells; conditions: MTT, concentration as high as 1 mM
Description: The cytotoxicity of the SML lipids was evaluated with the standard MTT (3-(4,5-dimethylthiazolyl-2)-2,5-diphenyltetrazolium bromide) assay method. Briefly, C26 cells were incubated with lipids of various concentrations for a period of time at 37° C. Then the medium was replaced with the MTT working reagents, and the cells were incubated for another two hours. The reagents were then carefully removed. The converted dye was solubilized in acidic isopropanol. The absorbance of the dye was measured at 570 nm with background subtraction at 650 nm.

[4] = SML:PC:AmB=2:2:1 (mole) liposomes, stored at 4° C.
Description: First, the chloroform solution of SML/diacyl PC lipids mixture at given ratio were evaporated, and lipid film was placed under high vacuum overnight. Given amount of amphotericin B DMSO solution (20 mg/mL) was then added to the lipid film followed by the addition of pH 7.4 PBS. The mixture was sonicated under argon at 60° C. for 1 hour. The mixture was then dialyzed against pH 7.4 PBS. The yellow solution obtained was sterilized by filtering through 220 nm membrane. Products were stored at 4° C. for future study.

[5] = type: physicochemical
Description: SML16m was designed to have a large surface area than conventional phospholipids by replacing of the hydrophobic lipid chain with an amphiphilic poly(ethylene glycol) chain. […] Unlike conventional amphiphilic molecules, SML16m solution doesn't foam when agitated, but forms a thin membrane along the glass wall above the solution surface. SML16m can effectively solubilize amphotericin B at molar ratios of 1:1 or higher to obtain a concentration of 5 mg/mL. SML16m can also be formulated with other lipids to achieve small liposomes.

C26 colon carcinoma = assay: Survival of Balb/C mice tumored with C26 colon carcinoma after doxorubicin delivered in liposomes of various compositions; type: in vivo; conditions: Dose of Dox 10 mg/kg, s.c. C26 tumors
Description: The effect of these formulations on tumor progression and animal survival were compared against the effect non-encapsulated doxorubicin or Doxil™, a commercial liposome formulation of doxorubicin that is approved by the Food and Drug Administration in the Balb/C mice tumored with C26 colon carcinoma. (FIGS. 8 and 9, Table 3).
Drug loaded liposomes of defined size were prepared by methods well known in the art and described in, for example, (Liposomes: 2nd edition, Oxford University Press, 2003, V. Torchilin and V. Weissig., Ed.). Lipid films were prepared by drying 10 μmoles of lipid mixtures dissolved in chloroform under a reduced pressure in glass tubes using a rotary evaporator at room temperature, followed by an overnight exposure to a high vacuum. Liposomes were prepared by rehydrating the thin lipid film above the transition temperature of the lipid in a sterile 250 mM ammonium sulfate solution in screw-capped glass tubes, followed by sonication in a bath type sonicator for 10 minutes at 60° C. The liposome preparation was then extruded through 0.1 micron polycarbonate membranes. […] Mean vesicle diameters as measured by dynamic light scattering using the multimodal program ranged between 85-140 nm with a monodisperse particle size distribution (Malvern Instruments, UK). […]
All animal experiments were performed in compliance with the NIH guidelines for animal research under a protocol approved by the Committee on Animal Research at the University of California, San Francisco. […] Mice were weighed and tumor sizes were monitored daily during the experimental period. The tumor volume was estimated by measuring three orthogonal diameters (a, b, and c) with calipers; the volume was calculated as (a×b×c)×0.5 cm^3. […] In each experiment the mice were monitored for up to 60 days post-inoculation or until one of the following conditions for euthanasia was met: 1) their body weight dropped below 15% of their initial mass; 2) their tumor was greater than 2.0 cm across in any dimension; 3) they became lethargic or sick and unable to feed; or 4) they were found dead. […]

[6] = Leakage of calcein from liposomes in 30% fetal bovine serum at 37° C.
Description: The purified calcein (56 mM) was then encapsulated into the liposomes for the leakage assay. Generally, the dry lipid film (10 μmol) of given formulation was hydrated in 1 mL calcein containing buffer at 60° C. under argon for 15 min with intermittent vortex. Then the sample was extruded through a polycarbonate membrane 11 times at 60° C. followed by passing a Sephadex G-50 column with the corresponding isosmotic eluent. The pooled liposome fractions were then analyzed to determine the calcein concentration, and diluted to the linear fluorescence range for leakage studies discussed below.
Calcein was encapsulated into the liposome by the method described above. Liposomes were extruded through 200 nm membrane and the free calcein was removed by passing the liposomes through the Sephadex G-50 column using HEPES buffer (10 mM HEPES, 140 mM NaCl, pH 7.4) as the isomotic eluent. Conventional liposome formulations containing 40% cholesterol (mole percent) were used as the control in the long term leakage assay. An aliquot of liposome sample (20-50 μL) was diluted by 30% fetal bovine serum to a total volume of 2 mL. Samples were then sealed in the glass tube and incubated at 37° C. Fluorescence intensities of samples were monitored at different time points and the fraction of calcein remaining in the liposome was determined by the similar method of osmotic stress induced leakage. […]

[7] = calcein liposomes, 37° C., compared with DMPC liposomes
Description: The fluorescent dye calcein (2.49 g, 4 mmol) was dissolved in Tris-HCl buffer (10 mM, pH 7.5, 6 mL) after the addition of 50% sodium hydroxide (695 μL, 13.2 mmol). This stock solution was then loaded on a Sephadex LH-20 column (2.5 cm×40 cm) and eluted with Tris-HCl buffer (10 mM, pH 7.5). The concentration of pooled fraction of calcein was determined by measuring the absorbance (494 nm) of diluted sample at pH 9. The purified calcein (56 mM) was then encapsulated into the liposomes for the leakage assay. Generally, the dry lipid film (10 μmol) of given formulation was hydrated in 1 mL calcein containing buffer at 60° C. under argon for 15 min with intermittent vortex. […] The pooled liposome fractions were then analyzed to determine the calcein concentration, and diluted to the linear fluorescence range for leakage studies discussed below.
Liposomes used for this study were prepared according to the above mentioned method (Example 11) with high concentration content (56 mM calcein, 10 mM Tris, 711 mM NaCl), extruded through 100 nm membrane, and eluted with the isosmotic buffer (50 mM HEPES, 775 mM NaCl). […] Fluorescence signal at 517 nm (ext.: 494 nm) was read after 5 min equilibration by using a Quantech™ fluorometer (Barnstead/Thermolyne, Dubuque, Iowa). […] The fluorescence of the total calcein was measured and used as 100% signal (F100%). […]

CC(C)CCC[C@@H](C)[C@H]1CC[C@H]2[C@@H]3CC=C4C[C@@H](OC(=O)OC[C@H](COP(=O)([O-])OCC[N+](C)(C)C)OC(=O)O[C@H]5CC[C@@]6(C)C(=CC[C@H]7[C@@H]8CC[C@H]([C@H](C)CCCC(C)C)[C@@]8(C)CC[C@@H]76)C5)CC[C@]4(C)[C@H]3CC[C@]12C [SML6a, 1,2-Dicholesterylcarbonoyl-sn-glycero-3-phosphocholine]
exchange of cholesterol out of donor liposomes [1]: very little or no detectable exchange of cholesterol
new transition in DSC trace ([2]; DChcPC/DPPC mixtures, equivalent free cholesterol 30 mole percent): around 20 °C

CCCCCCCCCCCCCCCCNC(=O)OC(COC(=O)OC1CCC2(C)C(=CCC3C2CCC2(C)C(C(C)CCCC(C)C)CCC32)C1)COP(=O)([O-])OCC[N+](C)(C)C (centres unmarked) [SML1b, 1-Cholesterycarbonoyl-2-palmitylcarbamoyl-sn-glycero-3-phosphocholine]
cytotoxicity [3]: certain cytotoxicity

1-Cholesterylcarbonoyl-2-palmityl-rac-glycero-3-phosphocholine [SML2b]
equivalent cholesterol at which the phase transition is eliminated completely ([2]; SML mixed with diacyl lipid of the same chain length (C-16)): 30%

CCCCCCCCCCCCCCCCCCNC(=O)OC(COC(=O)OC1CCC2(C)C(=CCC3C2CCC2(C)C(C(C)CCCC(C)C)CCC32)C1)COP(=O)([O-])OCC[N+](C)(C)C (centres unmarked) [SML1a, 1-Cholesterylcarbonoyl-2-stearylcarbamoyl-sn-glycero-3-phosphocholine]
cytotoxicity [3]: certain cytotoxicity

CCCCCCCCCCCCCCCC(=O)OCC(COP(=O)([O-])OCC[N+](C)(C)C)OC(=O)OC1CCC2(C)C(=CCC3C2CCC2(C)C(C(C)CCCC(C)C)CCC32)C1 (centres unmarked) [SML5b, 1-Palmitoyl-2-cholesterylcarbonoyl-sn-glycero-3-phosphocholine]
exchange of cholesterol out of donor liposomes [1]: very little or no detectable exchange of cholesterol
stability of formulation at 4° C. [4]: more than one year

COCCOCCOCCOCCOCCOCCOCCOCCC(=O)O[C@H](COC(=O)CCC(=O)O[C@H]1CC[C@@]2(C)C(=CC[C@H]3[C@@H]4CC[C@H]([C@H](C)CCCC(C)C)[C@@]4(C)CC[C@@H]32)C1)COP(=O)([O-])OCC[N+](C)(C)C [SML16m, 1-cholesterylhemisuccinoyl-2-(2,5,8,11,14,17,20,23-octaoxahexacosan-26-oyl)-sn-glycero-3-phosphocholine]
concentration of amphotericin B solubilized [5]: 5000 µg/mL
solubility in water [5]: dissolves in water easily

COc1cccc2c1C(=O)c1c(O)c3c(c(O)c1C2=O)C[C@@](O)(C(=O)CO)C[C@@H]3O[C@H]1C[C@H](N)[C@H](O)[C@H](C)O1 [Free Dox, Doxorubicin]
# of Animals Surviving at Day 60 (n = 5) (C26 colon carcinoma): 0
Median Survival Day (C26 colon carcinoma): 26 days
# of Animals Surviving at Day 60 (n = 5) (C26 colon carcinoma; listed as non-encapsulated doxorubicin): no animals survived to 60 days

CCCCCCCCCCCCCCCCOCC(COP(=O)([O-])OCC[N+](C)(C)C)OC(=O)OC1CCC2(C)C(=CCC3C2CCC2(C)C(C(C)CCCC(C)C)CCC32)C1 (racemic) [SML4b, 1-Palmityl-2-cholesterylcarbonoyl-rac-glycero-3-phosphocholine]
stability of formulation at 4° C. [4]: more than one year

CCCCCCCCCCCCCCOCC(COP(=O)([O-])OCC[N+](C)(C)C)OC(=O)OC1CCC2(C)C(=CCC3C2CCC2(C)C(C(C)CCCC(C)C)CCC32)C1 (racemic) [SML4c, 1-Myristyl-2-cholesterylcarbonoyl-rac-glycero-3-phosphocholine]
stability of formulation at 4° C. [4]: more than one year

CCCCCCCCCCCCCCNC(=O)O[C@H](COC(=O)O[C@H]1CC[C@@]2(C)C(=CC[C@H]3[C@@H]4CC[C@H]([C@H](C)CCCC(C)C)[C@@]4(C)CC[C@@H]32)C1)COP(=O)([O-])OCC[N+](C)(C)C [SML1c, 1-Cholesterylcarbonoyl-2-myristylcarbamoyl-sn-glycero-3-phosphocholine]
leakage profile of calcein from liposomes ([6]; 37° C., 4 weeks): remained intact
leakage of calcein in 28 days ([6]; 28 days): less than 1%
osmotic leakage profile / stability under osmotic gradients [7]: no difference in osmotic induced release
osmotic leakage profile / stability under osmotic gradients ([7]; listed as ChcMaPC): good stability

CCCCCCCCCCCCCCCCCC(=O)OCC(COP(=O)([O-])OCC[N+](C)(C)C)OC(=O)OC1CCC2(C)C(=CCC3C2CCC2(C)C(C(C)CCCC(C)C)CCC32)C1 (centres unmarked) [SML5a, 1-Stearoyl-2-cholesterylcarbonoyl-sn-glycero-3-phosphocholine]
stability of formulation at 4° C. [4]: more than one year

CC(C)CCC[C@@H](C)[C@H]1CC[C@H]2[C@@H]3CC=C4C[C@@H](O)CC[C@]4(C)[C@H]3CC[C@]12C [free cholesterol, cholesterol, reference compound]
half time for cholesterol exchange ([1]; free cholesterol in a conventional liposome (Chol/DPPC/DPPG 40/50/10)): ~2 h
